Source: US20240058450A1, “BCL-XL Inhibitory Compounds Having Low Cell Permeability and Antibody Drug Conjugates Including the Same” (AbbVie Inc., priority 2014, published 2024)
Read-outs that look alike come from different tables or passages of the source.

Legend:
[1] = system: Molt-4 human acute lymphoblastic leukemia cells; experiment: Molt-4 cell viability assay (CellTiter-Glo, 48 hours, 10% HS); type: cell-based; settings: non-permeabilized cells
Description: The ability of Bcl-xL inhibitors that are able to traverse cell membranes to inhibit Bcl-xL can be determined in cell-based killing assays using a variety of cell lines and mouse tumor models. For example, their activity on cell viability can be assessed on a panel of cultured tumorigenic and non-tumorigenic cell lines, as well as primary mouse or human cell populations.
In one exemplary set of conditions, Molt-4 (ATCC, Manassas, VA) human acute lymphoblastic leukemia cells were plated 12,500 cells per well in 384-well tissue culture plates (Corning, Corning, NY) in a total volume of 25 μL tissue culture medium supplemented with 10% human serum (Sigma-Aldrich, St. Louis, MO) and treated with a 3-fold serial dilution of the compounds of interest from 10 μM to 0.0005 μM. Each concentration was tested in duplicate at least 3 separate times. The number of viable cells following 48 hours of compound treatment was determined using the CellTiter-Glo®, Luminescent Cell Viability Assay according to the manufacturer's recommendations (Promega Corp., Madison, WI). Compounds were tested in the presence of 10% HS.

Bcl-xL = Bcl-xL (Homo sapiens, UniProt Q07817); experiment: Time Resolved-Fluorescence Resonance Energy Transfer (TR-FRET) binding assay, competition with probe F-Bak
Description: Tb-anti-GST antibody was purchased from Invitrogen (Catalog No. PV4216).
For the assay, test compounds were serially diluted in DMSO starting at 50 μM (2× starting concentration; 10% DMSO) and 10 μL transferred into a 384-well plate. 10 μL of a protein/probe/antibody mix was then added to each well at final concentrations listed below:
The samples were then mixed on a shaker for 1 minute and incubated for an additional 2 hours at room temperature. For each assay plate, a probe/antibody and protein/antibody/probe mixture were included as a negative and a positive control, respectively. Fluorescence was measured on the Envision (Perkin Elmer) using a 340/35 nm excitation filter and 520/525 (F-Bak) and 495/510 nm (Tb-labeled anti-his antibody) emission filters. Dissociation constants (Ki) were determined using Wang's equation (Wang, 1995, FEBS Lett. 360:111-114). The TR-FRET assay can be performed in the presence of varying concentrations of human serum (HS) or fetal bovine serum (FBS). Compounds were tested both without HS and in the presence of 1% HS.

[2] = in the presence of 1% HS, read-out: Bcl-xL Binding Ki (nM, 1% HS)
[3] = without HS, read-out: Bcl-xL Binding Ki

Bcl-xL, sequence (Q07817 whole entry): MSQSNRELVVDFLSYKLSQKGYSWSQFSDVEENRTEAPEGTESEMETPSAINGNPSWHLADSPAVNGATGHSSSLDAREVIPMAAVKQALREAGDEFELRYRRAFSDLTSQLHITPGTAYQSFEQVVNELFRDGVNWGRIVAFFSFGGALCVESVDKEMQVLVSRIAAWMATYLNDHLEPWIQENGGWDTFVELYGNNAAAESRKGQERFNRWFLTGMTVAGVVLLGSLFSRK

Row | SMILES | EC50 ([1]; Homo sapiens, MOLT-4, 48 h) [nM] | Ki (Bcl-xL; [2]) [nM] | Ki (Bcl-xL; [3]) [nM] | EC50 [1] [nM]
1 | Cc1c(-c2ccc(-c3ccc4c(c3)N(C(=O)Nc3nc5ncccc5s3)CCC4)nc2C(=O)O)cnn1CC12CC3(C)CC(C)(C1)CC(OCCNCCS(=O)(=O)O)(C3)C2 [Example 1.53, 3-{1-[(3,5-dimethyl-7-{2-[(2-sulfoethyl)amino]ethoxy}tricyclo[3.3.1.1^3,7]dec-1-yl)methyl]-5-methyl-1H-pyrazol-4-yl}-6-[1-([1,3]thiazolo[4,5-b]pyridin-2-ylcarbamoyl)-1,2,3,4-tetrahydroquinolin-7-yl]pyridine-2-carboxylic acid] | 462 | 0.088 | < 0.001 | –
2 | Cc1c(-c2ccc(N3CCc4cccc(C(=O)Nc5nc6ccccc6s5)c4C3)nc2C(=O)O)cnn1CC12CC3(C)CC(C)(C1)CC(OCCN(CCCC(=O)O)C1CCNCC1)(C3)C2 [Example 1.42, 6-[8-(1,3-benzothiazol-2-ylcarbamoyl)-3,4-dihydroisoquinolin-2 (1H)-yl]-3-{1-[(3-{2-[(3-carboxypropyl)(piperidin-4-yl)amino]ethoxy}-5,7-dimethyltricyclo[3.3.1.1^3,7]dec-1-yl)methyl]-5-methyl-1H-pyrazol-4-yl}pyridine-2-carboxylic acid] | 482 | 0.133 | < 0.001 | –
3 | Cc1c(-c2ccc(N3CCc4cccc(C(=O)Nc5nc6ccccc6s5)c4C3)nc2C(=O)O)cnn1CC12CC3(C)CC(C)(C1)CC(OCCNCC[C@H](O)[C@H](O)CO)(C3)C2 [Example 1.80] | 355 | 0.78 | 0.053 | –
4 | Cc1c(-c2ccc(N3CCc4cccc(C(=O)Nc5nc6ccccc6s5)c4C3)nc2C(=O)O)cnn1CC12CC3(C)CC(C)(C1)CC(OCCNS(=O)(=O)CCCNC(CO)CO)(C3)C2 [Example 1.83] | 178 | 0.66 | 0.031 | –
5 | Cc1c(-c2ccc(N3CCc4cccc(C(=O)Nc5nc6ccccc6s5)c4C3)nc2C(=O)O)cnn1CC12CC3(C)CC(C)(C1)CC(OCCN(C)C(=O)[C@H](N)CC(=O)O)(C3)C2 [Example 1.27] | – | 0.18 | < 0.001 | 935
6 | Cc1c(-c2ccc(-c3ccc4c(c3)N(C(=O)Nc3nc5ccccc5s3)CCC4)nc2C(=O)O)cnn1CC12CC3(C)CC(C)(C1)CC(OCCNCCC(=O)O)(C3)C2 [Example 1.62, 6-[1-(1,3-benzothiazol-2-ylcarbamoyl)-1,2,3,4-tetrahydroquinolin-7-yl]-3-{1-[(3-{2-[(2-carboxyethyl)amino]ethoxy}-5,7-dimethyltricyclo[3.3.1.1^3,7]dec-1-yl)methyl]-5-methyl-1H-pyrazol-4-yl)pyridine-2-carboxylic acid] | 153 | 0.2 | < 0.001 | –
7 | Cc1c(-c2ccc(N3CCc4cccc(C(=O)Nc5nc6cccnc6s5)c4C3)nc2C(=O)O)cnn1CC12CC3(C)CC(C)(C1)CC(OCCNCCCP(=O)(O)O)(C3)C2 [Example 1.40, 3-{1-[(3,5-dimethyl-7-{2-[(3-phosphonopropyl)amino]ethoxy}tricyclo[3.3.1.1^3,7]dec-1-yl)methyl]-5-methyl-1H-pyrazol-4-yl}-6-[8-([1,3]thiazolo[5,4-b]pyridin-2-ylcarbamoyl)-3,4-dihydroisoquinolin-2 (1H)-yl]pyridine-2-carboxylic acid] | 6480 | 6.28 | < 0.001 | –
8 | Cc1c(-c2ccc(N3CCc4cccc(C(=O)Nc5nc6ccccc6s5)c4C3)nc2C(=O)O)cnn1CC12CC3(C)CC(C)(C1)CC(OCCNC[C@H](O)[C@H](O)[C@@H](O)[C@H](O)[C@H](O)CO)(C3)C2 [Example 1.82] | 373 | 0.46 | 0.023 | –
9 | Cc1c(-c2ccc(-c3ccc4cccc(C(=O)Nc5nc6ccccc6s5)c4c3)nc2C(=O)O)cnn1CC12CC3(C)CC(C)(C1)CC(OCCNCCCS(=O)(=O)O)(C3)C2 [Example 1.35, 6-[8-(1,3-benzothiazol-2-ylcarbamoyl)naphthalen-2-yl]-3-{1-[(3,5-dimethyl-7-{2-[(3-sulfopropyl)amino]ethoxy}tricyclo[3.3.1.1^3,7]dec-1-yl)methyl]-5-methyl-1H-pyrazol-4-yl}pyridine-2-carboxylic acid] | 238 | 0.439 | < 0.001 | –
